# Molecular target: T1, IL-17A/A (Homo sapiens, UniProt Q16552)
# T1 construct: purchased Genscript Z03228
# T1 sequence (Q16552 24-155): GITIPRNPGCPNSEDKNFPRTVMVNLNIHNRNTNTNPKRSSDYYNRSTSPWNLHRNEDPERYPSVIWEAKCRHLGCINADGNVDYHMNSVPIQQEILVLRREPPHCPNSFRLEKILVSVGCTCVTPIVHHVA
# Assay: IL-17A/A HEK-Blue Cell Assay
# Format: cell-based
# Conditions: IL-17A/A inhibition, HEK-Blue IL-17A reporter cell line, SEAP readout at A630, incubated for 20 hours
# Description: Example 3: IL-17A/A HEK-Blue Cell Assay
# The HEK-Blue IL-17A reporter cell line (Fisher #NC1408637) was used for cell-based IL-17A/A inhibition assays. Cells were grown and prepared for assays according to the manufacturer's instructions. This cell line consists of HEK 293 cells that were designed to expressed IL-17RA, IL-17RC, and the ActI adapter molecule, the combination of which, when stimulated by IL-17A/A activates a NFκB promoter and drives expression of a recombinant Secreted Alkaline Phosphatase (SEAP) gene protein. Media from the cells is then added to a development reagent (Quanti-Blue Substrate, Fisher #NC9711613), and read at A630.
# Compounds were titrated in DMSO, with a top final compound concentration of 10 μM, 1 uM, or 0.3 μM, and added to the cells immediately before adding IL-17A/A (Genscript #Z03228). The cells, compound, and IL-17A/A were then incubated for 20 hours before media was removed for SEAP analysis. The resulting inhibition curve was then analyzed using Graphpad Prism 7.0, and IC50 values were determined using a 4-parameter nonlinear fit. DMSO was added to a universal final concentration of 0.1% to optimize background.
row,SMILES,IC50
1,CCn1nccc1C(=O)N[C@H](c1nc2cc(CC3CCC(C(F)(F)F)NC3=O)cc(F)c2[nH]1)C(C1CC1)C1CC1 (some centres unmarked) [Compound 56],100 to 1000 nM
2,CCn1nccc1C(=O)N[C@H](c1nc2cc(CC3CCNC3=O)cc(C#N)c2[nH]1)C1CCC(F)(F)CC1 (some centres unmarked) [Compound 57],100 to 1000 nM
3,CC(C)n1nccc1C(=O)N[C@H](c1nc2ccc(C[C@H]3CCNC3=O)cc2[nH]1)C(C1CC1)C1CC1 [Compound 58],100 to 1000 nM
4,Cn1nccc1C(=O)N[C@H](c1nc2ccc(C[C@H]3CCNC3=O)cc2[nH]1)C(C1CC1)C1CC1 [Compound 59],100 to 1000 nM
5,CCn1nccc1C(=O)N[C@H](c1nc2ccc(C[C@H]3CCNC3=O)cc2[nH]1)[C@H]1CC[C@H](C)CC1 [Compound 61],< 100 nM
6,CCn1nccc1C(=O)N[C@H](c1nc2ccc(C[C@H]3CCNC3=O)cc2[nH]1)[C@H](c1ccccc1Cl)C(C)C [Compound 62],> 1000 nM
7,CC[C@@H](c1ccc(F)cc1)[C@H](NC(=O)c1ccnn1CC)c1nc2ccc(C[C@H]3CCNC3=O)cc2[nH]1 [Compound 63],> 1000 nM
8,CCn1nccc1C(=O)N[C@H](c1nc2ccc(C[C@H]3CCNC3=O)cc2[nH]1)C(C1CCC1)C1CCC1 [Compound 64],100 to 1000 nM
9,CC[C@@H](C1CCC1)[C@H](NC(=O)c1ccnn1CC)c1nc2ccc(C[C@H]3CCNC3=O)cc2[nH]1 [Compound 65],100 to 1000 nM
10,CCn1nccc1C(=O)N[C@H](c1nc2ccc(C[C@H]3CCNC3=O)cc2[nH]1)[C@@H](C)[C@H]1CC[C@H](C)CC1 [Compound 66],100 to 1000 nM
11,Cc1nonc1C(=O)N[C@H](c1nc2ccc(C[C@H]3CCNC3=O)cc2[nH]1)C1CCC(F)(F)CC1 [Compound 67],100 to 1000 nM
12,O=C1N[C@H](C(F)(F)F)C[C@H]1Cc1ccc2nc([C@@H](NC(=O)C3(F)CC3)C(C3CC3)C3CC3)[nH]c2c1 [Compound 68],> 1000 nM
13,O=C1N[C@H](C(F)(F)F)C[C@@H]1Cc1ccc2nc([C@@H](NC(=O)C3(F)CC3)C(C3CC3)C3CC3)[nH]c2c1 [Compound 69],100 to 1000 nM
14,CCn1nccc1C(=O)N[C@H](c1nc2ccc(CC3CCC(C)NC3=O)cc2[nH]1)C(C1CC1)C1CC1 (some centres unmarked) [Compound 70],100 to 1000 nM
15,CCn1nccc1C(=O)N[C@H](c1nc2ccc(CC3CC(C(F)(F)F)CNC3=O)cc2[nH]1)C(C1CC1)C1CC1 (some centres unmarked) [Compound 71],100 to 1000 nM
16,CCn1nccc1C(=O)N[C@H](c1nc2ccc(CC3CC(C)NC3=O)cc2[nH]1)C(C1CC1)C1CC1 (some centres unmarked) [Compound 72],100 to 1000 nM

row,SMILES,IC50
1,CCn1nccc1C(=O)N[C@H](c1nc2ccc(CC3CC(F)(F)CNC3=O)cc2[nH]1)C(C1CC1)C1CC1 (some centres unmarked) [Compound 73],100 to 1000 nM
2,CCn1nccc1C(=O)N[C@H](c1nc2ccc(C[C@H]3CC(F)(F)CNC3=O)cc2[nH]1)C(C1CC1)C1CC1 [Compound 74],< 100 nM
3,CCn1nccc1C(=O)N[C@H](c1nc2ccc(C[C@@H]3CC(F)(F)CNC3=O)cc2[nH]1)C(C1CC1)C1CC1 [Compound 75],100 to 1000 nM
4,CCn1nccc1C(=O)N[C@H](c1nc2ccc(CC3C(=O)NC4CC43)cc2[nH]1)C(C1CC1)C1CC1 (some centres unmarked) [Compound 76],100 to 1000 nM
5,CCn1nccc1C(=O)N[C@H](c1nc2ccc(CC3C(=O)NCC3C(F)(F)F)cc2[nH]1)C(C1CC1)C1CC1 (some centres unmarked) [Compound 77],100 to 1000 nM
6,CCn1nccc1C(=O)N[C@H](c1nc2ccc(C(COC)C3C[C@@H](C(F)(F)F)NC3=O)cc2[nH]1)C(C1CC1)C1CC1 (some centres unmarked) [Compound 78],> 1000 nM
7,CCn1nccc1C(=O)N[C@H](c1nc2ccc(C(COC)C3C[C@@H](C(F)(F)F)NC3=O)cc2[nH]1)C(C1CC1)C1CC1 (some centres unmarked) [Compound 79],100 to 1000 nM
8,CCn1nccc1C(=O)N[C@H](c1nc2ccc(C(COC)C3C[C@@H](C(F)(F)F)NC3=O)cc2[nH]1)C(C1CC1)C1CC1 (some centres unmarked) [Compound 80],100 to 1000 nM
9,CCn1nccc1C(=O)N[C@H](c1nc2ccc(C(C)C3CCCNC3=O)cc2[nH]1)C(C1CC1)C1CC1 (some centres unmarked) [Compound 81],> 1000 nM
10,CCn1nccc1C(=O)N[C@H](c1nc2ccc(C(C)C3CCCNC3=O)cc2[nH]1)C(C1CC1)C1CC1 (some centres unmarked) [Compound 82],100 to 1000 nM
11,CCn1nccc1C(=O)N[C@H](c1nc2ccc(C(C)C3CCCNC3=O)cc2[nH]1)C(C1CC1)C1CC1 (some centres unmarked) [Compound 83],> 1000 nM
12,CCn1nccc1C(=O)N[C@H](c1nc2ccc(C(C)C3CCCNC3=O)cc2[nH]1)C(C1CC1)C1CC1 (some centres unmarked) [Compound 84],100 to 1000 nM
13,CCn1nccc1C(=O)N[C@H](c1nc2ccc(C(C)C3CCCNC3=O)cc2[nH]1)C(C1CC1)C1CC1 (some centres unmarked) [Compound 85],> 1000 nM
14,CCn1nccc1C(=O)N[C@H](c1nc2ccc(C[C@H]3CCCNC3=O)cc2[nH]1)C1CCC(F)(F)CC1 [Compound 86],> 1000 nM
15,CCn1nccc1C(=O)N[C@H](c1nc2ccc(C[C@H]3CCCNC3=O)cc2[nH]1)[C@H]1CC[C@H](C)CC1 [Compound 87],> 1000 nM
16,CCn1nccc1C(=O)N[C@H](c1nc2ccc(CC3CCCNC3=O)cc2[nH]1)[C@H]1CC[C@H](C(F)(F)F)CC1 (some centres unmarked) [Compound 88],> 1000 nM

# — patent publication US20260226047A1, “BENZIMIDAZOLE AND AZA-BENZIMIDAZOLE BASED IL-17A MODULATORS AND USES THEREOF” (DICE ALPHA, INC., priority 2023, published 2026)
